Source: US8193377B2, “(−)-epigallocatechin gallate derivatives for inhibiting proteasome” (The Hong Kong Polytechnic University, priority 2004, dated 2012)

Experiments:
[1] = tested on: ubiquitinated proteins, Bax, p27, IκBα in Jurkat T cells; experiment: Western blot for ubiquitinated proteins and proteasome targets (Bax, p27, IκBα) in Jurkat T cells; assay type: cell-based, human; conditions: 25 μM
Protocol: (§1) Whole cells extracts were prepared as described previously (An B, Goldfarb R H, Siman R, Dou Q P. Novel dipeptidyl proteasome inhibitors overcome Bc1-2 protective function and selectively accumulate the cyclin-dependent kinase inhibitor p27 and induce apoptosis in transformed, but not normal, human fibroblasts. Cell Death Differ 1998; 5: 1062-75.). Analysis of Bax, IKBa, p27, PAW, and ubiquitinated protein expression were performed using monoclonal or polyclonal antibodies according to previously reported protocols (An B et. al.).
To determine what effects the synthetic tea analogs had on the proteasome in vivo, Jurkat cells were treated with 25 μM of each synthetic compound for either 4 or 24 h, with (−)-EGCG as a control (FIGS. 9A and 9B). […] This is consistent with the idea that protected analogs are potent inhibitors of the proteasome at an earlier time point and that after 24 h of treatment the ubiquitinated proteins are being depleted by deubiquitinating enzymes. […] The putative ubiquitinated IκBα band is still found in cells treated with 2a, 3a, and 4a (FIG. 9B, Lanes 9, 5, 7). The presumed ubiquinated IκBα band is now absent in the 24 h treatment, possibly due to deubiquitination (FIG. 9B). Actin was used as a loading control in this experiment.
The pro-apoptotic protein Bax and the cyclin-dependent kinase inhibitor p27 are natural proteasome targets. If the peracetate-protected polyphenols inhibit the intact proteasome activity, we would expect accumulation of Bax and p27 in these cells. To test this idea, Jurkat T cells were treated with both protected and unprotected compounds and lysates were analyzed by Western blot using specific antibodies to Bax and p27 (FIG. 15). After 4 h of treatment, the peracetate-protected analogs 24* and 19*, but not their unprotected analogs, were able to increase accumulation of both Bax (by 3- and 2.5-fold, respectively) and p27 (6- and 11-fold, respectively) (FIG. 15A). After 24 h treatment, Bax levels were increased in cells treated with all of the peracetate-protected compounds (13-, 12-, 40- and 36-fold, respectively, by 24*, 19*, 21* and 23*).

Jurkat T cells [2] = experiment: Western blot for PARP cleavage in Jurkat T cells; assay type: cell-based, human; conditions: 25 μM, 24 h
Protocol: as §1
It has been shown that proteasome inhibition can induce apoptosis in a wide variety of cancer cells, but not in normal, non-transformed cells (An B et al). Jurkat T cells are treated with 25 μM of each of the selected polyphenols and their protected analogs for 24 h to investigate their abilities to induce apoptotic cell death. […] The unprotected 2 induced much less apoptosis (21%), while 25 μM VP-16, used as a positive control, induced 92% apoptosis (FIGS. 10C and 10D). Counterstain with DAPI, which binds to the minor groove in A-T rich regions of DNA, was decreased drastically in apoptotic cells (FIG. 10C), consistent with DNA fragmentation in late stage apoptosis.
To determine if the cell death observed (FIG. 16) was due to the induction of apoptosis, a similar experiment was performed in Jurkat T cells, followed by measurement of caspase-3 activation and PARP cleavage.

MCF-7 cells = experiment: MTT assay; assay type: cell-based, human; conditions: 24 h
Protocol: MTT was used to determine effects of polyphenols on overall proliferation of tumor cells. Human breast MCF-7 cells were plated in a 96 well plate and grown to 70-80% confluency, followed by addition of analogs for 24 h. MTT (1 mg/ml) in PBS was then added to wells and incubated at 37° C. for 4 hours to allow for complete cleavage of the tetrazolium salt by metabolically active cells. Next, the MTT was removed and 100 μl of DMSO was added and colorimetric analysis performed using a multilabel plate reader at 560 nm (Victor^3; Perkin Elmer). Absorbance values plotted are the mean from triplicate experiments.
Treated breast cancer (MCF-7) cells were then treated with 5 or 25 μM of peracetate-protected analogs for 24 h, followed by MTT analysis to determine their effects on cell proliferation. Compound 1 at 25 μM inhibited cellular proliferation by 40% (FIG. 11A).

LNCaP cells = experiment: Apoptotic morphological changes, phase contrast; assay type: cell-based, human; conditions: 25 μM, 24 h
[3] = tested on: ubiquitin-conjugated proteins in LNCaP cells; experiment: Western blot for ubiquitin-conjugated proteins in LNCaP cells; assay type: cell-based, human; conditions: 25 μM, 24 h
Protocol: as §1
To determine if acetate-protected analogs are potent proteasome inhibitors in other cancer cell systems, prostate cancer LNCaP cells were treated for 24 h with 25 μM of (−)-EGCG, 1, 2a, or 3a, with DMSO as a control.

Jurkat T cells [4] = experiment: Trypan blue cell death assay in Jurkat T cells; assay type: cell-based, human; conditions: 24 h
[5] = molecular target: T1, proteasomal chymotrypsin-like activity in Jurkat T cells (Homo sapiens, UniProt P28074); experiment: Proteasomal chymotrypsin-like activity in intact Jurkat T cells / their lysates; assay type: cell-based; conditions: 25 μM, 24 h, Jurkat T
T1 construct: measurement of the proteasomal chymotrypsin-like activity in the prepared lysates; endogenous in cells; host or cells: Jurkat T cells (human leukemia)
T1 sequence (P28074 60-263): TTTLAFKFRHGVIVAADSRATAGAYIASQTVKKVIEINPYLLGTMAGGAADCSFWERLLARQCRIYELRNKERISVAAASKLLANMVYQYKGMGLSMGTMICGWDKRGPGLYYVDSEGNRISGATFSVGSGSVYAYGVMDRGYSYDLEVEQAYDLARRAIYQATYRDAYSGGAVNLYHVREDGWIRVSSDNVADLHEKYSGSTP
Protocol: VA-13 or WI-38 cells were grown in 24 well plates (2 ml/well) to 70-80% confluency, followed by 24 h treatment with […] (−)-EGCG, 2, or 2a. […] Suc-Leu-Leu-Val-Tyr-AMC substrate was then added for 2.5 h at 37° C. and the chyrnotrypsin-like activity was measured as described above. Alternatively, cells were treated with each compound at 25 μM for 4 or 24 h, and harvested and lysed. Suc-Leu-Leu-Val-Tyr-AMC (40 μM) was then incubated with the prepared cell lysates for 2.5 h and the chymotrypsin-like activity was measured as described above.
If 1 converts to (−)-EGCG inside the cells, proteasome inhibition in vivo should be detected. To examine this possibility, human Jurkat cells was treated with 25 μM of 1 or (−)-EGCG for 12 or 24 h, followed by measurement of proteasome activity by using a chymotrypsin-like specific fluorogenic substrate in intact cells (FIG. 6a) or Western blot for ubiquinated proteins (FIG. 6b). […] To analyze the intracellular level of polyubiquitinated proteins, cells were lysed after 12 hours incubation and subjected to Western blotting. […] It is possible that the amount of EGCG generated from 1, and thus its biological activity inside the cells depends on a combination of factors: the relative permeability of 1 into the cells, the amount of esterase enzymes and the amount of anti-oxidants that may be present in the cells at any time.
To determine whether the unprotected and protected polyphenol analogs could inhibit the proteasomal activity in intact cells, leukemia Jurkat T cells were treated with each compound at 25 μM for 4 and 24 h, followed by collection of cell pellets and measurement of the proteasomal chymotrypsin-like activity in the prepared lysates.

[6] = Stability test in RPMI 1640 culture medium, HPLC; conditions: 37° C.
Protocol: The stability of 1 with (−)-EGCG in a culture medium (RMPI) is compared, which mimics the body fluid with a pH value around 8. (−)-EGCG or 1 at 0.1 mM was incubated in 1 mL RMPI at 37° C. at indicated times. At different time points, the medium was analyzed by HPLC for the amount of tested compound remaining.

[7] = molecular target: T2, purified rabbit 20s proteasome (Oryctolagus cuniculus, UniProt G1T4Q9); experiment: Inhibition of chymotrypsin-like activity of purified 20S proteasome; assay type: biochemical; conditions: 10 μM, purified 20S proteasome
T2 construct: purchased Boston Biochem (Cambridge, Mass.)
T2 sequence (G1T4Q9 1-263): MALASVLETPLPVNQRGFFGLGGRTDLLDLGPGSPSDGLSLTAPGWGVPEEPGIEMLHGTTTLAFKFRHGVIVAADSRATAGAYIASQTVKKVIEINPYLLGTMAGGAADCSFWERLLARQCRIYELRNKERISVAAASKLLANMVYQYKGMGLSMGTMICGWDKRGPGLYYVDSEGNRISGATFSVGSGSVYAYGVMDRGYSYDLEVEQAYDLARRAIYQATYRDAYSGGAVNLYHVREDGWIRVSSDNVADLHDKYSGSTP
Protocol: Measurement of the chyrnotrypsin-like activity of the 20s proteasome was performed by incubating 0.5 μg of purified rabbit 20s proteasome with 40 μM fluorogenic peptide substrate, Suc-Leu-Leu-Val-Tyr-AMC, with or without various concentrations of natural and synthetic tea polyphenols as described previously (Nam S et. al.).
In order to test this hypothesis, proteasome activity was tested both in vitro and in intact Jurkat T cells with either 1 or (−)-EGCG (as a positive control). First, 1 and commercial (−)-EGCG were dissolved in DMSO and their effects on the chymotrypsin-like activity of purified 20S proteasomes were measured. […] In contrast, (−)-EGCG at 10 μM inhibited 80-90% of the proteasomal chymotrypsin-like activity. Therefore, as predicted, 1 outside of a cellular system is not a proteasome inhibitor.
Up to 25 μM of all protected and unprotected compounds were incubated with a purified 20s proteasome and a fluorogenic substrate for chyrnotrypsin activity for 30 min. The half-maximal inhibitory concentration or IC50 was then determined. […] This is consistent with the results above.

[8] = tested on: phosphorylated Akt (p-Akt); experiment: Western blot for phosphorylated Akt in Jurkat T cells; assay type: cell-based, human; conditions: 25 μM, 24 h
Protocol: (−)-EGCG and 1 were incubated with Jurkat T cells for 24 h at 5, 10 and 25 μM, followed by Western blot analysis using a specific antibody to phosphorylated Akt (FIG. 7). […] Actin was used as a loading control.

Row | SMILES | accumulation of p27 ([1]; 24 h) | apoptosis-specific PARP cleavage (Jurkat T cells [2]) | inhibition of cellular proliferation (MCF-7 cells; 5 μM) | inhibition of cellular proliferation (MCF-7 cells; 25 μM) | apoptotic morphological changes (LNCaP cells) | ubiquitin-conjugated proteins [3] | cell death (trypan blue) (Jurkat T cells [4]; 25 μM) | level of ubiquitinated proteins ([1]; 12 h) | inhibition of proteasome activity in intact cells [5] | time after which compound disappeared completely ([6]; 0.1 mM in RPMI, pH around 8) | stability relative to (−)-EGCG ([6]; RPMI culture medium) | inhibition of proteasomal chymotrypsin-like activity [7] | reduction of p-Akt level (densitometry) [8] | cell death (Jurkat T cells [4]; 10 μM)
1 | CC(=O)Oc1ccc(C(=O)O[C@@H]2Cc3c(OC(C)=O)cc(OC(C)=O)cc3O[C@H]2c2cc(OC(C)=O)c(OC(C)=O)c(OC(C)=O)c2)cc1 (relative stereo) [Compound 3a, (2S*,3R*)-trans-5,7-Bis(acetyloxy)-2-[3,4,5-tris(acetyloxy)phenyl]chroman-3-yl 4-(acetyloxy)benzoate] | Accumulation of p27 | induced apoptosis-specific PARP cleavage | 50% | 70% | dramatic round-up, detachment, and cellular fragmentation | greatest increase | 57% | – | – | – | – | – | – | –
2 | CC(=O)Oc1cc(OC(C)=O)c2c(c1)O[C@H](c1cc(OC(C)=O)c(OC(C)=O)c(OC(C)=O)c1)[C@H](OC(=O)c1cc(OC(C)=O)c(OC(C)=O)c(OC(C)=O)c1)C2 [Compound 1, peracetate (−)-EGCG] | – | – | – | 40% | mild morphological changes | – | – | comparable levels of ubiquitinated proteins to that of natural (−)-EGCG | 42% | 2 h | 6 times | completely inactive | 73% | up to 15%
